SMILES strings stand for the structures. pIC50: −log10 of the molar value.

human DPP-IV, sequence (P27487 31-766): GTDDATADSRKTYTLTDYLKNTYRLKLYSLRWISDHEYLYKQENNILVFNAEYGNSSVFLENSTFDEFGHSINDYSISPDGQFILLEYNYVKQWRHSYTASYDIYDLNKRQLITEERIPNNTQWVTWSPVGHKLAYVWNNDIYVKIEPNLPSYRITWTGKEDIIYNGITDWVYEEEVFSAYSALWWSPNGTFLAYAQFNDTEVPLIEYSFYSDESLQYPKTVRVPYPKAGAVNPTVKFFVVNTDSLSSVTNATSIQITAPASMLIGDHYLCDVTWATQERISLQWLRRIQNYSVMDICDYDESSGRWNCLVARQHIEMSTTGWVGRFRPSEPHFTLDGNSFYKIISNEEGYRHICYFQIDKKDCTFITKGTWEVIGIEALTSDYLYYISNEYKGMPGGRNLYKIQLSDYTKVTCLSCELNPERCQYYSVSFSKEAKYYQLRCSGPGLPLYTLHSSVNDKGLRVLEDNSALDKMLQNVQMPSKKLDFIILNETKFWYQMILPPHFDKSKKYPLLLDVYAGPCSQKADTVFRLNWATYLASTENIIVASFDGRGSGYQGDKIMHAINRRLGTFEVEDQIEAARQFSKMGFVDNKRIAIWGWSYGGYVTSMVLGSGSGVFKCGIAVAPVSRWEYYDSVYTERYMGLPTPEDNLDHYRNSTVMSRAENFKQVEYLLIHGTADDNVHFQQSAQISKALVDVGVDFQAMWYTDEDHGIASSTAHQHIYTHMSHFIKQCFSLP

This assay has as its target human DPP-IV (Homo sapiens, UniProt P27487). The assay can be described thus: DPP-IV activity assay (fluorogenic or colorimetric substrate), IC50 determination.
Method: Activity of DPP-IV inhibitors are tested with natural human DPP-IV derived from a human plasma pool or with recombinat human DPP-IV. Human citrate plasma from different donors is pooled, filterted through a 0.2 micron membrane under sterile conditions and aliquots of 1 ml are shock frozen and stored at −120° C. until used. In the colorimetric DPP-IV assay 5 to 10 μl human plasma and in the fluorometric assay 1.0 μl of human plasma in a total assay volume of 100 μl is used as an enzyme source. […] In the calorimetric DPP-IV assay 20 ng rec.-h DPP-IV and in the fluorometric assay 2 ng rec-h DPP-IV in a total assay volume of 100 μl is used as an enzyme source.
Initial rate constants are calculated by best fit linear regression.
The absorption of pNA liberated from the colorimetric substrate is detected in a Packard SpectraCount at 405 nm continuosly every 2 minutes for 30 to 120 minutes. Initial rate constants are calculated by best fit linear regression.
DPP-IV activity assays are performed in 96 well plates at 37° C. in a total assay volume of 100 μl. The assay buffer consists of 50 mM Tris/HCl pH 7.8 containing 0.1 mg/ml BSA and 100 mM NaCl. Test compounds are solved in 100% DMSO, diluted to the desired concentration in 10% DMSO/H2O. The final DMSO concentration in the assay is 1% (v/v). At this concentration enzyme inactivation by DMSO is <5%. Compounds are with (10 minutes at 37° C.) and without preincubation with the enzyme. Enzyme reactions are started with substrate application followed by immediate mixing.
Kinetic parameters of the enzyme reaction are calculated at at least 5 different substrate concentrations and at least 5 different test compound concentrations.
Take `COc1cc2c(cc1OC)[C@@H]1C[C@H](N)[C@@H](N3CCC=CC3=O)CN1CC2` (racemic) [Example 12, (RS,RS,RS)-1-(2-Amino-9,10-dimethoxy-1,3,4,6,7,11b-hexahydro-2H-pyrido [2,1-a]isoquinolin-3-yl)-5,6-dihydro-1H-pyridin-2-one]: the negative logarithm of the IC50 (pIC50) (in general, the IC50 on a negative log10 scale, so that one unit is a factor of ten) was 7.48.
The value for `COc1cc2c(cc1OC)[C@@H]1C[C@H](N)[C@@H](N3CCCCS3(=O)=O)CN1CC2` [Example 16, (S,S,S)-3-(1,1-Dioxo-[1,2]thiazinan-2-yl)-9,10-dimethoxy-1,3,4,6,7,11b-hexahydro-2H-pyrido[2,1-a]isoquinolin-2-ylamine] was 6.88.
`COc1cc2c(cc1OC)[C@@H]1C[C@H](N)[C@@H](C(=O)N3CCSC3)CN1CC2` (racemic) [Example 2, (RS,RS,RS)-(2-Amino-9,10-dimethoxy-1,3,4,6,7,11b-hexahydro-2H-pyrido[2,1-a]isoquinolin-3-yl)-thiazolidin-3-yl-methanone] showed a negative-log IC50 (pIC50) of 7.39.
